The results in this text go back to US4923965A, “Tripeptides of N^3 -4-methoxyfumaryl-L-2,3-diaminopropanoic acid” (Politechnika Gdanska, priority 1988, dated 1990).

Molecules are shown by their SMILES. ≈ marks a conversion by molar mass, not a printed value. Where a name gives a salt, the structure may show the parent alone.

The nature of assay [1]: MIC stated in the synthesis examples. The class given is cell-based. Conditions: strain and medium not given.
Assay [2] deals with Candida albicans ATCC 26278. Briefly: minimum inhibitory concentration for elected strain. The class given is cell-based. The protocol: The in vitro activity has been evaluated by the method of serial dilutions in parallel on solid YNB medium and on YNB w/o+AN medium, where the abbreviation AN means 200 mg of sodium glutamate, 10 mg of L-histidine, 20 mg of DL-methionine, 20 mg DL-tryptophane, 10 g of glucose and 15 g of agar-agar per 1 liter of the YNB medium. The application of the medium modified in such a manner was made necessary by the known phenomenon of lower biological activity in the media containing ammonium sulphate as a source of nitrogen.

What is called MIC is the smallest concentration in the dilution series that meets the test's criterion for growth inhibition. A high value points to weaker potency. As to `COC(=O)/C=C/C(=O)NC[C@H](N)C(=O)N[C@@H](CCSC)C(=O)N[C@@H](C)C(=O)O` [Example I, N^3-4-methoxyfumaryl-L-2,3-diaminopropanoyl-L-methionyl-L-aniline], the MIC in assay [1] was 0.1 µg/mL (≈ 0.239 µM).
The same measure, in the same setting: for `COC(=O)/C=C/C(=O)NC[C@H](NC(=O)[C@@H](N)CCSC)C(=O)N[C@@H](CCSC)C(=O)O` [VIII, N^2 -L-methionyl, n^3-4-methoxyfumaryl-L-2,3-diaminopropanoyl-L-methonine hydrochloride] the value was 0.8 µg/mL.
`CCC[C@H](NC(=O)[C@@H](N)CCSC)C(=O)N[C@@H](CNC(=O)/C=C/C(=O)OC)C(=O)O` [XVI, N^2 -L-methionyl-L-norvalyl, N^3-4-methoxyfumaryl-L-2,3-diaminopropanoic hydrochloride] returned an MIC in assay [1] of 0.8 µg/mL. The “minimum inhibitory concentration, MIC” value in assay [2] is 0.4 µg/mL.
Regarding `CCC[C@H](NC(=O)[C@@H](N)CCCCN)C(=O)N[C@@H](CNC(=O)/C=C/C(=O)OC)C(=O)O` [XXII, N^2 --L-lysyl-L-norvalyl-N^3-4-methoxyfumaryl-L-2,3-diaminopropanoic dihydrochloride], the “minimum inhibitory concentration, MIC” value in assay [2] was found to be 0.02 µg/mL.
